A word on the Ki: it is the equilibrium dissociation constant of an inhibitor or competing ligand from its target. A word on the IC50: it is the concentration that inhibits the measured activity by half. The low end stands for higher potency, the high end for lower potency.

Each structure is given as a SMILES string.

Among the data in patent US20150031674A1, “SERINE/THREONINE KINASE INHIBITORS” (GENENTECH, INC., priority 2013, published 2015) are Ki and IC50 values, retold here.

The target in assay [1] is human recombinant PAK1-KD protein (Homo sapiens, UniProt Q13153). Nature of the assay: PAK1-KD (Kinase Domain) IC50 Zlyte Assay (FRET peptide substrate phosphorylation). As to conditions: Z'-LYTE, Biological Example 1.
Sequence of human recombinant PAK1-KD protein (Q13153 270-521 limits assumed): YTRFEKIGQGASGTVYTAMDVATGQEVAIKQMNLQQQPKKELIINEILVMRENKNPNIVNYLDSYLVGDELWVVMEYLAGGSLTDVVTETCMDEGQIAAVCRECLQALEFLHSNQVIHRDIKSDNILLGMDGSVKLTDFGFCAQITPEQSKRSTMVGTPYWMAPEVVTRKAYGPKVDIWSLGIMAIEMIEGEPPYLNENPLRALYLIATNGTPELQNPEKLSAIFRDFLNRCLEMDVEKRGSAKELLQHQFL
Source text: PAK1-KD (Kinase Domain) IC50 Zlyte Assay Protocol
Activity of human recombinant PAK1-KD protein may be assessed in vitro by assay of the phosphorylation of a FRET peptide substrate. Catalytically active human recombinant PAK1-KD protein is obtained by purification from Tini cells infected with a human PAK1-KD recombinant baculovirus expression vector.
The activity/inhibition of PAK1-KD was estimated by measuring the phosphorylation of a FRET peptide substrate (Ser/Thr19) labeled with Coumarin and Fluorescein using Z′-LYTE™ assay (Invitrogen). The peptide substrate is a consensus sequence ([sequence]) based on various PAK substrates reported in the scientific literature. […] Incubations were carried out at 22° C. in black polypropylene 384-well plates (Corning Costar).
Assay [2] relates to group I PAKs in EBC1 cells (MEK1 phosphorylation at S298). Nature of the assay: Cellular PAK IC50 Assay: MEK1 phosphorylation at S298 by HTRF. As to conditions: Homo sapiens, EBC-1, 2 h treatment, media containing 0.1% FBS, phospho-MEK1 (S298) HTRF. It counts as cell-based. The protocol:
Cellular PAK IC50 Assay Protocol
Group I PAKs (PAK1-3) are activated upon binding to the Rho GTPases, Rac1 and Cdc42. Activated group I PAKs phosphorylate MEK1 at Serine 298 (S298), one of the two sites in the catalytic domain that is important for stable association between Raf and MEK1 and subsequent MAPK activation. The inhibition of group I PAKs in EBC1 cells is assessed by detecting changes in the level of MEK1 phosphorylation at S298 using homogenous time-resolved fluorescence (HTRF). Inhibitory activity was estimated by treating 2×10^4 EBC1 cells for 2 h with PAK inhibitors in media containing 0.1% FBS. Following inhibitor treatment, cells were lysed with 25 μL of 1× cellular kinase lysis buffer (Cisbio) containing 1× cellular kinase blocking reagent (Cisbio). Cellular lysis was carried out at 4° C. for 2 h with constant shaking before lysate (16 μL) was transferred to white 384-well ProxiPlates™ (Perkin Elmer). Anti-total MEK1 antibody labeled with Europium cryptate donor (1 ng/well) (Cell Signaling Technologies catalog number 2352) and anti-phospho MEK1 (S298) antibody labeled with d2 acceptor (Cell Signaling Technologies catalog number 9128) (10 ng/well) were prepared in 1× detection buffer (CisBio) and added to each well of the assay plate and allowed to incubate at RT overnight. The following day the fluorescence emission from each well was measured in EnVision® (Perkin Elmer) at an excitation of 330 nm and dual emission wavelengths of 615 nm and 665 nm. The signal in each well at 665 nm was multiplied by 10,000 and divided by the signal in the same well at 615 nm to obtain a ratio. Ratio values ([665·10,000]÷615) were plotted as a function of the concentration of compound to determine IC50 values.
A general note: Time-resolved FRET reads energy transfer from a long-lived donor to a nearby acceptor.

Consider `Cc1cccc(-c2ccc(-c3cc4cnc(NCC(F)F)nc4n(CCN4CCNCC4)c3=O)c(Cl)c2)n1` [Example I-89, 6-[2-Chloro-4-(6-methyl-2-pyridyl)phenyl]-2-(2,2-difluoroethylamino)-8-(2-piperazin-1-ylethyl)pyrido[2,3-d]pyrimidin-7-one], for which the Ki in assay [1] stood at 7.8 nM. Further, in assay [2], half-maximal inhibition (IC50) required 57.7 nM.

Consider `CCNc1ncc2cc(-c3ccc(-c4cncc(C)n4)cc3Cl)c(=O)n(CCCC(N)=O)c2n1` [Example I-3, 4-[6-[2-Chloro-4-(6-methylpyrazin-2-yl)phenyl]-2-(ethylamino)-7-oxo-pyrido[2,3-d]pyrimidin-8-yl]butanamide], for which the Ki in assay [1] turned out to be 47.4 nM. Besides, the half-maximal inhibitory concentration (IC50) in assay [2] worked out at 506 nM.

Take `CCNc1ncc2cc(-c3ccc(-c4cccc(C)n4)cc3C)c(=O)n(CCCC(N)=O)c2n1` [Example I-70, 4-[2-(Ethylamino)-6-[2-methyl-4-(6-methyl-2-pyridyl)phenyl]-7-oxo-pyrido[2,3-d]pyrimidin-8-yl]butanamide]: the Ki in assay [1] amounted to 17.4 nM. For the same compound, in assay [2], the IC50 is 289 nM.

With `CCNc1ncc2cc(-c3ccc(-c4cncc(C)n4)cc3Cl)c(=O)n(CCCN)c2n1` [Example I-1, 8-(3-Aminopropyl)-6-[2-chloro-4-(6-methylpyrazin-2-yl)phenyl]-2-(ethylamino)pyrido[2,3-d]pyrimidin-7-one], in assay [1], the Ki was found to be 8.23 nM. The half-inhibitory concentration (IC50) in assay [2] was determined as 249 nM.

Turning to `Cc1cncc(-c2ccc(-c3cc4cnc(N)nc4n(CC4OCC(N)CO4)c3=O)c(Cl)c2)n1` (stereo not drawn) [Example I-56, 2-Amino-8-[((2s,5s)-5-amino-1,3-dioxan-2-yl)methyl]-6-[2-chloro-4-(6-methylpyrazin-2-yl)phenyl]pyrido[2,3-d]pyrimidin-7-one and 2-amino-8-[((2r,5r)-5-amino-1,3-dioxan-2-yl)methyl]-6-[2-chloro-4-(6-methylpyrazin-2-yl)phenyl]pyrido[2,3-d]pyrimidin-7-one], the Ki in assay [1] came out at 18.6 nM. In assay [2], this compound had a concentration for half-maximal inhibition (IC50) of 426 nM.

Regarding `CCNc1ncc2cc(-c3ccc(-c4cncc(C)n4)cc3Cl)c(=O)n(CCN3CCNCC3)c2n1` [Example I-4, 6-(2-Chloro-4-(6-methylpyrazin-2-yl)phenyl)-2-(ethylamino)-8-(2-(piperazin-1-yl)ethyl)pyrido[2,3-d]pyrimidin-7(8H)-one], the Ki in assay [1] was 6.4 nM. This compound returned a 50% inhibitory concentration (IC50) in assay [2] of 96 nM.

As to `CCNc1ncc2cc(-c3ccc(-c4cncc(C)n4)cc3Cl)c(=O)n(CCOC3CCCNC3)c2n1` (stereo not drawn) [Example I-14, 6-(2-Chloro-4-(6-methylpyrazin-2-yl)phenyl)-2-(ethylamino)-8-(2-(piperidin-3-yloxy)ethyl)pyrido[2,3-d]pyrimidin-7(8H)-one], in assay [1], the inhibitory constant (Ki) is 14.8 nM. The compound also registered a concentration for half-maximal inhibition (IC50) in assay [2] of 246 nM.

`CCNc1ncc2cc(-c3ccc(-c4cccc(C)n4)cc3Cl)c(=O)n(CCOCCN)c2n1` [Example I-64, 8-[2-(2-Aminoethoxy)ethyl]-6-[2-chloro-4-(6-methyl-2-pyridyl)phenyl]-2-(ethylamino)pyrido[2,3-d]pyrimidin-7-one]: the Ki in assay [1] stood at 2.8 nM. 35.7 nM corresponded to half-maximal inhibition in assay [2] (IC50).

In the case of `CCNc1ncc2cc(-c3ccc(-c4cncc(C)n4)cc3Cl)c(=O)n(C[C@H]3CC[C@H](NC)CC3)c2n1` [Example I-17, 6-(2-Chloro-4-(6-methylpyrazin-2-yl)phenyl)-2-(ethylamino)-8-(((1r,4r)-4-(methylamino)cyclohexyl)methyl)pyrido[2,3-d]pyrimidin-7(8H)-one], in assay [1], the Ki was found to be 4.8 nM. The same compound showed an IC50 in assay [2] of 96 nM.
